This is an account of results in patent publication US8688416B2, “Methods and systems for improved pharmaceutical intervention in coagulation control” (priority 2008, dated 2014).

Values joined by “and” are separate entries in the source; they are usually repeats but may differ in a detail not shown here. Equal entries are not always repeated.

The subject of test [1] is INR. The test can be described thus: Fit of dose-response equation (4)/(5) for Vitamin K intake to INR of anti-coagulated patients (published data). Type of test: in vivo. From the text: More specifically, the reciprocal of INR will be dose-responsive to Vitamin K in the normal manner, as discussed above, so that Logit (1/INR) will be linear in log (K), where K is the effective total intake of Vitamin K in μg/day. Data on the total intake of Vitamin K are very rarely available in the clinic, but it is practicable to investigate departures from the usual amount when occasion arises, such as when a supplement of Vitamin K is prescribed. Therefore log (K) is expressed as the sum of two terms: log (K)=log (K0)+log (K/K0), where K0 is the average daily intake of Vitamin K.
The dose-response curve described here includes the effect of exogenous Vitamin K by considering the parameter a in equation (1) to be the sum of two terms, a=a′+c log (K0), where a′ is another constant and c is a patient-specific parameter, and by adding a term for the effect of departures from K0. Thus, it follows that Log (INR−1)=bw−a−c log (K/K0) (4) […]
The parameters of this dose-response curve for Vitamin K are derived primarily from published data based on use of synthetic Vitamin K tablets. In such published studies, the average daily intake of Vitamin K was measured in the diet of the subjects at 55 μg. […] The dose was increased each Monday before INR was measured; thus, the INR for Tuesday was one day after increase, etc.

The subject of test [2] is INR.
Text: To simplify, a=y log (PCAo)−x, which expresses the fixed contribution of the patient's own clotting factor system; this will result in equation (1) Log (INR−1)=bw−a (1)
Consequently, the patient-specific parameters are now a and b. […] In the absence of further information, a is assumed to be a constant characteristic of the patient, but as will be shown below, also includes the effects of the intake of Vitamin K on the patient's INR, whose effects can be represented by adding another term (see below). It should be pointed out that Equation (1) is a proposition, not a definition, because it specifies what value of the INR will be observed, given values for a, b and w. Furthermore, it should be appreciated that the value predicted for a particular patient thus depends only on w regardless of when in the treatment sequence it occurred. […] These two parameters relating INR to effective dose w can be seen as the scale factor for the dose a and the steepness of the dose response b.
In the present invention, an empirical approximation is used to predict the time course of the patient's response to a change in a dose. […] In the case of a patient taking the same dose for an extended time, the “effective dose” equals that regular dose after the stabilization time. The “effective dose” only needs to be calculated when there is a change in dosage and during the stabilization period.
The “effective dose” is calculated by convolving the actual dose with a function of time since the dose was taken. This function represents the effect of a single dose on the INR through time. […] It is assumed that the weighting for a dose taken just once is a triangular function with a slope of k from the time the dose is taken to the time of its maximum effect on INR, followed by a tailing off with a slope of −k. The resulting function for a maintained daily dose is an S-shaped growth function, consisting of two quarter-parabolae, depicted in FIG. 5. […] Here, the half-maximal delay is one unit of time at which the dose has half its maximum effect. When the patient stops taking the drug, the decay is reversed.
The “optimum” dose is the dose expected to yield an INR at the mid-point of the therapeutic range. The effective doses were calculated using a half-maximal delay of 6.4, 6.4 and 9.0 days respectively.
The parameter tmax½ used for this convolution is the time to attain the half-maximal effect for a maintained dose, which is also the time to attain the maximum effect of a single dose.
[3] abbreviates: patients studied, all taking warfarin, w = daily dosage in milligrams, natural log.

Take `CC1=C(C/C=C(\C)CCC[C@H](C)CCC[C@H](C)CCCC(C)C)C(=O)c2ccccc2C1=O` [Vitamin K1]: in test [1] (effect on INR of effective total daily intake), the half-time to stabilization result is given as “about 1.6 days”.

As for `CC(=O)CC(c1ccccc1)c1c(O)c2ccccc2oc1=O` (centres unmarked) [warfarin], in test [2] (constant dose), the “time until the INR has stabilized on a constant dose” value was 13 days and 14 days. In test [2] (setting [3]), the “mean value of a in equation (1), Log (INR-1)=bw-a” value is on record as “about 2.8” and the “mean value of b in equation (1) (sensitivity, slope of the dose-response curve)” value is listed as “about 0.54”.

For the molecule Vitamin K, the “average value of patient-specific parameter c in equation (5)” value in test [1] (derived from the literature data, K in μg/day, natural log) worked out at 0.43.
